Experimental data as given in ChEMBL document CHEMBL2331514, “Structure-based design and synthesis of novel pseudosaccharine derivatives as antiproliferative agents and kinase inhibitors” (Eur J Med Chem, 2013).

What was measured:
MCF7 [1] = test: Cell cycle arrest in human MCF7 cells assessed as accumulation at G2/M phase at 10 uM after 24 hrs by propidium iodide staining-based FACS analysis (reference value: 4.80 %); format: functional
MCF7 [2] = test: Cell cycle arrest in human MCF7 cells assessed as accumulation at S phase at 10 uM after 24 hrs by propidium iodide staining-based FACS analysis (reference value: 36.60 %); format: functional
MCF7 [3] = test: Cell cycle arrest in human MCF7 cells assessed as accumulation at G1 phase at 10 uM after 24 hrs by propidium iodide staining-based FACS analysis (reference value: 58.50 %); format: functional
MCF7 [4] = test: Cell cycle arrest in human MCF7 cells assessed as accumulation at G0 phase at 10 uM after 24 hrs by propidium iodide staining-based FACS analysis (reference value: 1.30 %); format: functional
[5] = target: Serine/threonine-protein kinase B-raf (Homo sapiens) (UniProt P15056); test: Inhibition of B-Raf kinase (unknown origin) using [33P]-ATP at 10 uM after 20 to 40 mins by scintillation counting analysis
[6] = target: Proto-oncogene tyrosine-protein kinase Src (Homo sapiens) (UniProt P12931); test: Inhibition of Src kinase (unknown origin) using [33P]-ATP at 10 uM after 20 to 40 mins by scintillation counting analysis
[7] = target: Tyrosine-protein kinase ZAP-70 (Homo sapiens) (UniProt P43403); test: Inhibition of ZAP-70 kinase (unknown origin) using [33P]-ATP at 10 uM after 20 to 40 mins by scintillation counting analysis
MDA-MB-468 [8] = test: Cytotoxicity against human MDA-MB-468 cells after 48 hrs by SRB assay; format: functional; settings: MDA-MB-468, 48 h
T47D = test: Cytotoxicity against human T47D cells after 48 hrs by SRB assay; format: functional
BT-549 = test: Cytotoxicity against human BT549 cells after 48 hrs by SRB assay; format: functional; settings: BT-549, 48 h, pooled result: one value given for 51 cell lines, strains, targets or settings
MCF7 [9] = test: Cytotoxicity against human MCF7 cells after 48 hrs by SRB assay; format: functional; settings: MCF7, 48 h
PC-3 [10] = test: Cytotoxicity against human PC3 cells after 48 hrs by SRB assay; format: functional; settings: PC-3, 48 h
SF-295 [11] = test: Cytotoxicity against human SF295 cells after 48 hrs by SRB assay; format: functional; settings: SF-295, 48 h
NCI-H23 = test: Cytotoxicity against human NCI-H23 cells after 48 hrs by SRB assay; format: functional; settings: NCI-H23, 48 h
RPMI-8226 = test: Cytotoxicity against human RPMI8226 cells after 48 hrs by SRB assay; format: functional; settings: RPMI-8226, 48 h
MDA-MB-468 [12] = test: Cytotoxicity against human MDA-MB-468 cells assessed as growth inhibition at 10 uM after 48 hrs by SRB assay; format: functional; settings: MDA-MB-468, 48 h, read-out: GI
Hs-578T = test: Cytotoxicity against human Hs578T cells assessed as growth inhibition at 10 uM after 48 hrs by SRB assay; format: functional; settings: read-out: GI
PC-3 [13] = test: Cytotoxicity against human PC3 cells assessed as growth inhibition at 10 uM after 48 hrs by SRB assay; format: functional; settings: PC-3, 48 h, read-out: GI
RXF 393 = test: Cytotoxicity against human RXF393 cells assessed as growth inhibition at 10 uM after 48 hrs by SRB assay; format: functional; settings: RXF 393, 48 h, read-out: GI
A498 = test: Cytotoxicity against human A498 cells assessed as growth inhibition at 10 uM after 48 hrs by SRB assay; format: functional; settings: A498, 48 h, read-out: GI
[14] = Cytotoxicity against human NCI-ADR-RES cells assessed as growth inhibition at 10 uM after 48 hrs by SRB assay; format: functional; settings: read-out: GI
OVCAR-5 = test: Cytotoxicity against human OVCAR5 cells assessed as growth inhibition at 10 uM after 48 hrs by SRB assay; format: functional; settings: OVCAR-5, 48 h, read-out: GI
IGROV-1 = test: Cytotoxicity against human IGROV1 cells assessed as growth inhibition at 10 uM after 48 hrs by SRB assay; format: functional; settings: IGROV-1, 48 h, read-out: GI
UACC-62 = test: Cytotoxicity against human UACC62 cells assessed as growth inhibition at 10 uM after 48 hrs by SRB assay; format: functional; settings: UACC-62, 48 h, read-out: GI
SK-MEL-28 = test: Cytotoxicity against human SK-MEL-28 cells assessed as growth inhibition at 10 uM after 48 hrs by SRB assay; format: functional; settings: SK-MEL-28, 48 h, read-out: GI
SK-MEL-2 = test: Cytotoxicity against human SK-MEL-2 cells assessed as growth inhibition at 10 uM after 48 hrs by SRB assay; format: functional; settings: SK-MEL-2, 48 h, read-out: GI
SNB-19 = test: Cytotoxicity against human SNB19 cells assessed as growth inhibition at 10 uM after 48 hrs by SRB assay; format: functional; settings: SNB-19, 48 h, read-out: GI
SF-295 [15] = test: Cytotoxicity against human SF295 cells assessed as growth inhibition at 10 uM after 48 hrs by SRB assay; format: functional; settings: SF-295, 48 h, read-out: GI
SW-620 = test: Cytotoxicity against human SW620 cells assessed as growth inhibition at 10 uM after 48 hrs by SRB assay; format: functional; settings: SW-620, 48 h, read-out: GI
KM12 = test: Cytotoxicity against human KM12 cells assessed as growth inhibition at 10 uM after 48 hrs by SRB assay; format: functional; settings: KM12, 48 h, read-out: GI
HT-29 = test: Cytotoxicity against human HT-29 cells assessed as growth inhibition at 10 uM after 48 hrs by SRB assay; format: functional; settings: HT-29, 48 h, read-out: GI
HCT-116 = test: Cytotoxicity against human HCT116 cells assessed as growth inhibition at 10 uM after 48 hrs by SRB assay; format: functional; settings: HCT-116, 48 h, read-out: GI
HCC 2998 = test: Cytotoxicity against human HCC2998 cells assessed as growth inhibition at 10 uM after 48 hrs by SRB assay; format: functional; settings: HCC 2998, 48 h, read-out: GI
NCI-H226 = test: Cytotoxicity against human NCI-H226 cells assessed as growth inhibition at 10 uM after 48 hrs by SRB assay; format: functional; settings: NCI-H226, 48 h, read-out: GI
A549 = test: Cytotoxicity against human A549/ATCC cells assessed as growth inhibition at 10 uM after 48 hrs by SRB assay; format: functional; settings: A549, 48 h, read-out: GI
[16] = read-out: LC50 (the source's name)

Chain of Serine/threonine-protein kinase B-raf (Homo sapiens) (P15056 whole entry): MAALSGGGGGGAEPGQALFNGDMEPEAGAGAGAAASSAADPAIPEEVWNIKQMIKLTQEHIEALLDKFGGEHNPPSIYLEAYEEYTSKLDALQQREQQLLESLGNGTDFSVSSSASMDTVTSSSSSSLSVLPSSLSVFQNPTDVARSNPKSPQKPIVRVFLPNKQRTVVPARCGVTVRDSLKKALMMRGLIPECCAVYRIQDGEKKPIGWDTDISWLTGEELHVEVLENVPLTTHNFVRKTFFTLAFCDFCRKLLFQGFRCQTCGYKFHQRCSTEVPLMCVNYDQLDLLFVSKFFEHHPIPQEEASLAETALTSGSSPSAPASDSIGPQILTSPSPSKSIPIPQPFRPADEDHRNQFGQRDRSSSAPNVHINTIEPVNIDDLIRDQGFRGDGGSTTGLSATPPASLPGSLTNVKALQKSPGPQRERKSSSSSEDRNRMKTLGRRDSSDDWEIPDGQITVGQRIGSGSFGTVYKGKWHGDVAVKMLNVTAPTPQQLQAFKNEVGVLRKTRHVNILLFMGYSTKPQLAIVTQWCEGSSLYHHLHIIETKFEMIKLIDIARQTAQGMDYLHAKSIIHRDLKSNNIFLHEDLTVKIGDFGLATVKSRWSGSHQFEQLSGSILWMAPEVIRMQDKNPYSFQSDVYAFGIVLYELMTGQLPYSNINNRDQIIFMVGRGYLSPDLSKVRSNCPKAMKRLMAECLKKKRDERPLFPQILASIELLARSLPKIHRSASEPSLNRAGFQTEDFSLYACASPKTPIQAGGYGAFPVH
Chain of Proto-oncogene tyrosine-protein kinase Src (Homo sapiens) (P12931 2-536 limits assumed): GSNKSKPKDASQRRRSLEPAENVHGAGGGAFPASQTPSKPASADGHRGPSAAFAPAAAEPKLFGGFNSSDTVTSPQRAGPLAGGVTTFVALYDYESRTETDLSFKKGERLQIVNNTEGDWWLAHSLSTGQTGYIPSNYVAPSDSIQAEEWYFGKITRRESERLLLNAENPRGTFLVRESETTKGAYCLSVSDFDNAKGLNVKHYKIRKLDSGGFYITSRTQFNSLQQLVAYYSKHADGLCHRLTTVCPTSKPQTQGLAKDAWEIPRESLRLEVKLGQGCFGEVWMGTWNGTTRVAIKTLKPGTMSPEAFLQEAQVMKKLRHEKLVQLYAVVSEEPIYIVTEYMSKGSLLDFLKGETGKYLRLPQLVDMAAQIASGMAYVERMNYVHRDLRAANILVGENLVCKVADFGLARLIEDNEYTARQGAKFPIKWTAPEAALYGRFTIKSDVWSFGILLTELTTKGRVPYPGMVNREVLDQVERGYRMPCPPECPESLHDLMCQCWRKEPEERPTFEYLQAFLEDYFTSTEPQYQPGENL
Chain of Tyrosine-protein kinase ZAP-70 (Homo sapiens) (P43403 whole entry): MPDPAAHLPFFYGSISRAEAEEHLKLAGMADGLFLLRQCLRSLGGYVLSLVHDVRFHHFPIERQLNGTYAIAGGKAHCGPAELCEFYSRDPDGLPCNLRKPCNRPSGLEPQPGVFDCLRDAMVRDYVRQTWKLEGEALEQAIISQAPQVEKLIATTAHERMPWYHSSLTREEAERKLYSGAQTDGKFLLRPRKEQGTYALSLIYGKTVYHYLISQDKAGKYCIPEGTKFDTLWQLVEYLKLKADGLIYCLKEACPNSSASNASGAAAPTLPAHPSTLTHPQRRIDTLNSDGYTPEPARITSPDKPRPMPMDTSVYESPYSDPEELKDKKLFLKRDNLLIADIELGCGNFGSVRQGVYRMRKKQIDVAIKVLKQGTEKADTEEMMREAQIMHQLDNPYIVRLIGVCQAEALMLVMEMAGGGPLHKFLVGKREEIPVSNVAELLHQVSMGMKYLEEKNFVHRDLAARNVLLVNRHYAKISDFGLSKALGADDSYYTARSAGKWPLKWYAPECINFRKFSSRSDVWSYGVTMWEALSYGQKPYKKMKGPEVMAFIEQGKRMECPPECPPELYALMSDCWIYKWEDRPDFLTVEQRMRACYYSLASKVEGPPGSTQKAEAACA

SMILES: O=C(Nc1ccc(Cl)cc1)Nc1ccc2c(c1)C(Nc1ccc(Cl)cc1Cl)=NS2(=O)=O
- Activity (MCF7 [1]): 6.4%
- Activity (MCF7 [2]): 15.2%
- Activity (MCF7 [3]): 78.3%
- Activity (MCF7 [4]): 1.4%
- inhibition [5]: -8%
- inhibition [6]: 58%
- inhibition [7]: 13%
- GI50 (MDA-MB-468 [8]): 2.75 µM
- TGI (MDA-MB-468 [8]): > 100 µM
- CC50 (MDA-MB-468 [8]; [16]): > 100 µM
- GI50 (T47D): 2.63 µM
- TGI (T47D): > 100 µM
- CC50 (T47D; [16]): > 100 µM
- GI50 (BT-549): 5.7 µM
- GI50 (MCF7 [9]): 3.6 µM
- GI50 (PC-3 [10]): 2.82 µM
- TGI (PC-3 [10]): > 100 µM
- CC50 (PC-3 [10]; [16]): > 100 µM
- GI50 (SF-295 [11]): 2.88 µM
- TGI (SF-295 [11]): > 100 µM
- CC50 (SF-295 [11]; [16]): > 100 µM
- GI50 (NCI-H23): 2.69 µM
- TGI (NCI-H23): 12.3 µM
- CC50 (NCI-H23; [16]): > 100 µM
- GI50 (RPMI-8226): 2.19 µM
- TGI (RPMI-8226): 15.5 µM
- CC50 (RPMI-8226; [16]): > 100 µM
- inhibition of growth at 10 µM (MDA-MB-468 [12]): 74%
- inhibition of growth at 10 µM (Hs-578T): 9%
- inhibition of growth at 10 µM (PC-3 [13]): 82%
- inhibition of growth at 10 µM (RXF 393): 15%
- inhibition of growth at 10 µM (A498): 68%
- inhibition of growth at 10 µM [14]: 79%
- inhibition of growth at 10 µM (OVCAR-5): 40%
- inhibition of growth at 10 µM (IGROV-1): 54%
- inhibition of growth at 10 µM (UACC-62): 71%
- inhibition of growth at 10 µM (SK-MEL-28): 42%
- inhibition of growth at 10 µM (SK-MEL-2): 50%
- inhibition of growth at 10 µM (SNB-19): 64%
- inhibition of growth at 10 µM (SF-295 [15]): 96%
- inhibition of growth at 10 µM (SW-620): 69%
- inhibition of growth at 10 µM (KM12): 80%
- inhibition of growth at 10 µM (HT-29): 57%
- inhibition of growth at 10 µM (HCT-116): 91%
- inhibition of growth at 10 µM (HCC 2998): 72%
- inhibition of growth at 10 µM (NCI-H226): 63%
- inhibition of growth at 10 µM (A549): 69%
